Assay results published in patent US20090137451A1, “Methods for Assessing Suitability of Cancer Patients for Treatment with Histone Deacetylase Inhibitors” (Agency for Science, Technology and Research, priority 2005, published 2009).

Key:
Assay type in all cases: cell-based, human
[1] = tested on: ER-E2F1 expressing HCT116 p53 null cells; assay: Cell death (sub-G1) by PI staining and FACS in ER-E2F1 expressing cells; conditions: for sub-G1 cells indicative of cell death: 48 h; for SAHA-induced apoptosis (cells in Sub-G1): in the presence of 4-OHT, SAHA 24 h
Method: The effect of Bim-specific siRNA on HDACI-induced apoptosis upon E2F1 overexpression. (a) ER-E2F1 were transfected with nonspecific control siRNA (NC siRNA) or Bim-specific siRNA for 48 h, and then either left untreated (−) or treated with 4-OHT, SAHA or both for additional 24 h. […] Cell death was analyzed by flow cytometry following propidium iodide staining (right panel). The percentages of cells in Sub-G1 are indicated. (b) ER-E2F1 were transfected with nonspecific control siRNA (NC siRNA) or Bim-specific siRNA for 48 h, and then either left untreated (−) or treated with 4-OHT, 100 nM TSA or both for additional 48 h.
Cells were harvested and fixed in 70% ethanol. Fixed cells were stained with propidium iodide (50 μg/ml) after treatment with RNase (100 μg/ml). The stained cells were analyzed for DNA content by fluorescence-activated cell sorting (FACS) in a FACScalibur (Becton Dickinson Instrument, San Jose, Calif.). Cell cycle fractions were quantified using the CellQuest software (Becton Dickinson).
To definitively establish the role of Bim in HDACIs-induced apoptosis upon E2F1 activation, we used RNA interference to silence Bim expression and analyzed its biological effects. To this end, we transfected ER-E2F1 expressing cells with Bim-specific siRNA and treated with SAHA for 24 h in the presence or absence of 4-OHT. As controls, cells were also transfected with an irrelevant siRNA.

[2] = tested on: E1A-transformed IMR90 cells; assay: Apoptosis by FACS analysis in E1A-transformed IMR90 cells; conditions: SAHA 2.5 μM, TSA 300 nM; 48 h
Method: FIG. 5. Rb inactivation enhances Bim expression and sensitizes HDACIs-induced apoptosis. (a) U2OS cells were infected with Ad-E1A or Ad-LacZ for 24 h and treated with SAHA (1 μM) for additional 48 h. Cell death was determined by FACS analysis (right panel), and the levels of Bim and p73 were assessed by immunoblotting using antibodies against the indicated proteins (left panel). (b) Normal IMR90 and transformed IMR90-E1A cells were treated with SAHA at indicated concentrations and cell proliferation was evaluated for indicated times. (c) Expression of E1A results in upregulation of Bim and apoptosis potentiation in response to SAHA and TSA. […] Cell death was determined by FACS analysis (left panel), and the levels of Bim and p73 were assessed by immunoblotting using antibodies against indicated proteins (right panel). […] The expressions of Bim and β-actin were assessed by immunoblotting using antibodies against the indicated proteins. Apoptosis was evaluated by FACS analysis. […] The expressions of E2F1, Bim and PARP were assessed by immunoblotting using antibodies against the indicated proteins. […] Apoptosis was evaluated by FACS analysis.
Cells were harvested and fixed in 70% ethanol. […] The stained cells were analyzed for DNA content by fluorescence-activated cell sorting (FACS) in a FACScalibur (Becton Dickinson Instrument, San Jose, Calif.). […]

[3] = tested on: normal IMR90 cells; assay: Cell proliferation, dose-response, normal IMR90 cells; conditions: dose-response study, FIG. 5b
Method: (§1) FIG. 5. Rb inactivation enhances Bim expression and sensitizes HDACIs-induced apoptosis. (a) U2OS cells were infected with Ad-E1A or Ad-LacZ for 24 h and treated with SAHA (1 μM) for additional 48 h. Cell death was determined by FACS analysis (right panel), and the levels of Bim and p73 were assessed by immunoblotting using antibodies against the indicated proteins (left panel). (b) Normal IMR90 and transformed IMR90-E1A cells were treated with SAHA at indicated concentrations and cell proliferation was evaluated for indicated times. (c) Expression of E1A results in upregulation of Bim and apoptosis potentiation in response to SAHA and TSA. IMR90 and IMR90-E1A cells were treated with SAHA (2.5 μM) and TSA (300 nM) for 48 h. Cell death was determined by FACS analysis (left panel), and the levels of Bim and p73 were assessed by immunoblotting using antibodies against indicated proteins (right panel). (d) IMR90-E1A cells transfected with Bim siRNA or control siRNA (NC siRNA) were treated with TSA (800 nM) for 24 h. The expressions of Bim and β-actin were assessed by immunoblotting using antibodies against the indicated proteins. Apoptosis was evaluated by FACS analysis. […] The expressions of E2F1, Bim and PARP were assessed by immunoblotting using antibodies against the indicated proteins. […] Apoptosis was evaluated by FACS analysis. […]

[4] = tested on: transformed IMR90-E1A cells; assay: Cell proliferation, dose-response, transformed IMR90-E1A cells; conditions: dose-response study, FIG. 5b
Method: as §1

[5] = tested on: ER-E2F1 expressing cells; assay: Colony formation assay; conditions: 100 nM TSA or 1 μM SAHA for 24 h, with 4-OHT; colonies stained with crystal violet
Method: FIG. 1. HDACIs SAHA and TSA promote E2F1-mediated cell death (a) p53 null HCT116-ER-E2F1 expressing cells or control ER expressing cells were treated with or without 4-OHT. Cyclin E and p73 expression were evaluated by immunoblot analysis. (b) ER-E2F1 expressing or control cells were treated with 1 μM SAHA (left panel) or 100 nM TSA (right panel), in the presence or absence of 4-OHT. After 48 h, cells were harvested and cell death was assessed by PI staining using FACS. Mean results of three independent experiments were shown with standard deviations. (c) Colony formation assay. […] (d) Saos-2 and HCT116 cells infected with adenovirus containing E2F1 or LacZ as indicated were treated with 100 nM TSA for 24 h, and cell death was analyzed by FACS.
1000 cells were plated per well of a 6-well plate for 24-48 h and then followed by 100 nM TSA or 1 μM SAHA treatment in the presence or absence of 4-OHT. […] Colonies were stained with crystal violet and counted after 12 days.
To investigate whether E2F1 activation induces sensitization of cells to HDACIs-induced cell death, we analyzed the cell cycle profiles by FACS (fluorescence-activated cell sorter) in ER-E2F1 expressing HCT116 p53 null cells (ER-E2F1) and the control cells expressing ER-binding domain only (ER) following treatment with the HDACIs SAHA or TSA in the presence or absence of 4-OHT. […]

[6] = agent alone, 1 μM SAHA, PI staining FACS
[7] = both 4-OHT and HDACI (1 μM SAHA or 100 nM TSA)

| Molecule | sub-G1 cells indicative of cell death [1, 6] | sub-G1 cells indicative of cell death [1, 7] | SAHA-induced apoptosis (cells in Sub-G1) ([1]; cells treated with Bim siRNA) [%] | SAHA-induced apoptosis (cells in Sub-G1) ([1]; control siRNA treated cells) [%] | apoptosis [2] [%] | proliferation [3] | proliferation [4] | effect of E2F1 activation by 4-OHT on HDACI-induced growth inhibition [5] |
| --- | --- | --- | --- | --- | --- | --- | --- | --- |
| 4-hydroxytamoxifen [4-OHT] | approximately 13% | – | – | – | – | – | – | – |
| O=C(CCCCCCC(=O)Nc1ccccc1)NO [SAHA, suberoylanilide hydroxamic acid] | ~23% | 75% | 18 | 49 | ~60 | substantially inhibited proliferation | substantially inhibited proliferation | greatly promoted |
| CC(/C=C/C(=O)NO)=C\[C@@H](C)C(=O)c1ccc(N(C)C)cc1 [TSA, Trichostatin A] | – | Identical results | – | – | ~60 | – | – | greatly promoted |
